Laboratory results as given in patent US6683027B2, “Herbicidal mixtures” (BASF Aktienegesellschaft, priority 2000, dated 2004).

Key:
Papaver rhoeas = test: greenhouse pre-emergence trial, percent damage vs untreated control 21 days after treatment; format: in vivo; details: PAPRH
Matricaria inodora = test: as above; format: in vivo; details: 3.75 g/ha, MATIN, Example 2

FC(F)(F)c1ccc(-c2nccc(Oc3cccc(C(F)(F)F)c3)n2)cc1 [Compound A, 4-(3-trifluoromethylphenoxy)-2-(4-trifluoromethylphenyl)-pyrimidine]
Compound A alone (% control) (Papaver rhoeas; 3.75 g/ha, Example 1A): 63%
Compound A alone (% control) (Papaver rhoeas; 3.75 g/ha, Example 2): 0%
Compound A alone (% control) (Papaver rhoeas; 7.5 g/ha, Example 2): 15%
Compound A alone (% control) (Matricaria inodora): 50%
